Tested on: FPS and molecular pathways
Experiment: Modulation of FPS and molecular pathways in hepatic transcriptome (RNA-Seq, CES/GSEI) in CENTAUR trial biopsies
Assay type: in vivo, human
Excerpt: Archived formalin-fixed liver tissues from index biopsy were used for histological assessment in all patients (FIG. 1 and Table 1A-11) to confirm no to minimal fibrosis (METAVIR fibrosis stage F0 or F1). The PLS validation set 1 (and FPS derivation set 1) is a case-control series of 43 chronic hepatitis C patients from a prior cohort study consecutively diagnosed and followed at Johns Hopkins and Massachusetts General Hospital between 1998 and 2010. Twenty-five patients were co-infected with HIV and on anti-retroviral therapies. The patients were regularly followed up with ultrasound elastography at median interval of 1.1 (IQR: 0.6-2.0) years. Liver stiffness measurement >7.0 and >9.5 kPa were regarded as indication of F2 and F3 fibrosis, respectively. The PLS validation set 2 (and FPS derivation set 2) is a case-control series of 38 patients who consecutively underwent liver transplantation for HCV-related cirrhosis and protocol liver biopsies at year 1, 2, and 5 after transplantation (and additional biopsies as needed to evaluate graft rejection, which were excluded) at Baylor University between 2002 and 2007. Median number of biopsies was 8 (IQR: 6-9) per patient with median interval between serial biopsies of 8.6 (IQR: 0.3-12.6) months. […] The FPS derivation set 3 is a cross-sectional series of 31 NAFLD patients who underwent diagnostic liver biopsy at Hiroshima University between 2003 and 2015. The FPS derivation set 4 is a cross-sectional series of 309 NAFLD patients who underwent diagnostic liver biopsy (F0 or F1 fibrosis) at Massachusetts General Hospital between 2009 and 2016. […] The cases were defined as patients who had F-stage increase of one stage or more in the follow-up biopsy. The FPS validation set 2 includes 78 patients with fibrotic liver diseases from various etiologies, for which de-identified fresh liver tissues were available from standard-care hepatic resection for organotypic ex vivo tissue culture at University of Texas Southwestern and Mount Sinai. The FPS validation set 3 consists of NASH patients with F1-F3 fibrosis who underwent liver biopsy before and after 1-year treatment with cenicriviroc (n=9) or placebo (n=10) in the phase Ilb CENTAUR trial (NCT02217475). Decrease of one or more fibrosis stage was regarded as anti-fibrotic response. The serum surrogate FPS was assessed in archived de-identified serum samples from 79 patients with chronic liver diseases. The FPSec validation set is a cohort of 122 patients with compensated (Child-Pugh class A) cirrhosis patients with mixed etiologies enrolled at University of Michigan between 2004 and 2006 as reported in our previous study. Hepatic decompensation was defined as newly developed massive ascites, hepatic encephalopathy, bleeding from gastroesophageal varices, or liver transplantation. The study was approved by institutional review board at respective institutions with written informed consent or exemption for use of archived de-identified samples (protocol numbers: STU062018-058, STU072018-071, 2010P000220/PHS, HS13-00159).
Total RNA was isolated from fixed tissue sections by using High Pure RNA Paraffin kit (Roche), and assessed for quality by qRT-PCR of RPL13A. Total RNA from the PCLS tissues was isolated using RNeasy kit (Qiagen). RNA samples (100-200 ng) were subjected to the PLS/FPS assay implemented in the nCounter platform (NanoString), and transcriptome profiling of the CENTAUR trial samples was performed by RNA-Seq (TrueSeq RNA Access, Illumina). Expression of BCL2, COL1A1, and ACTA2 genes was measured by qRT-PCR (Table 3). Serum protein profiling was performed by using xMAP assay (Luminex). […]

[1] = Fibrosis improved, NASH patients, Hallmark set, Cell cycle, DNA damage, response
[2] = Fibrosis improved, NASH patients, Hallmark set, Cellular signaling
[3] = Fibrosis improved, NASH patients, Hallmark set, Inflammatory response, immunity
[4] = Fibrosis improved, NASH patients, Hallmark set, Metabolism, biosynthesis
[5] = Fibrosis improved, NASH patients, Hallmark set, Pathogenic response
[6] = Fibrosis improved, NASH patients, Hallmark set, Sex hormone signaling
[7] = Fibrosis improved, NASH patients, Hallmark set, Stress response
[8] = Fibrosis improved, NASH patients, Immune cell signature (GSE65136)
[9] = Fibrosis improved, NASH patients, Nuclear receptor signaling (curated pathway members)
[10] = Fibrosis improved, NASH patients, PPAR agonists on mouse primary hepatocytes (GSE27948)
[11] = Fibrosis not improved, NASH patients, Hallmark set, Cell cycle, DNA damage, response

**Q.** With `CCCCOCCOc1ccc(-c2ccc3c(c2)/C=C(/C(=O)Nc2ccc([S@@+]([O-])Cc4cncn4CCC)cc2)CCCN3CC(C)C)cc1` [Cenicriviroc] as the compound, how does the “modulation of TGF-β and PDGFRB pathways” value (1-year cenicriviroc treatment) read?
**A.** The value was “unchanged”.

**Q.** What about the “proportion of patients with substantial CES reduction (FPS response)” value (CENTAUR trial, 1-year treatment, paired pre/post biopsies) of the same compound?
**A.** The value was 22%.

**Q.** And the “NES, DNA repair gene set” value [1]?
**A.** The value was 1.44.

**Q.** What about the “NES, G2M checkpoint gene set” value [1] of the same compound?
**A.** The value was −1.33.

**Q.** And the “NES, Mitotic spindle gene set” value [1]?
**A.** The value was −1.61.

**Q.** And the “NES, Apoptosis gene set” value (Fibrosis improved, NASH patients, Hallmark set, Cell death)?
**A.** Its value is 1.32.

**Q.** And the “NES, E2F targets gene set” value [2]?
**A.** The value was −1.36.

**Q.** What about the “NES, Hedgehog signaling gene set” value [2] of the same compound?
**A.** Its value is −0.65.

**Q.** What about the “NES, KRAS signaling gene set” value [2] of the same compound?
**A.** Its value is 1.31.

**Q.** And the “NES, Myc targets v1 gene set” value [2]?
**A.** Its value is 1.56.

**Q.** And the “NES, Myc targets v2 gene set” value [2]?
**A.** The value was 1.26.

**Q.** What about the “NES, Notch signaling gene set” value [2] of the same compound?
**A.** The value was 1.00.

**Q.** And the “NES, PI3K/AKT/mTOR signaling gene set” value [2]?
**A.** The value was 0.91.

**Q.** And the “NES, TGFβ signaling gene set” value [2]?
**A.** Its value is 0.81.

**Q.** What about the “NES, TNFα signaling via NF-κB gene set” value [2] of the same compound?
**A.** Its value is 0.96.

**Q.** What about the “NES, Wnt/β-catenin signaling gene set” value [2] of the same compound?
**A.** Its value is −1.07.

**Q.** What about the “NES, mTORC1 signaling gene set” value [2] of the same compound?
**A.** Its value is 1.71.

**Q.** And the “NES, p53 pathway gene set” value [2]?
**A.** Its value is 1.00.

**Q.** And the “NES, Allograft rejection gene set” value [3]?
**A.** The value was 1.83.

**Q.** What about the “NES, IL2 STAT5 signaling gene set” value [3] of the same compound?
**A.** The value was 0.89.

**Q.** And the “NES, IL6 JAK STAT3 signaling gene set” value [3]?
**A.** The value was 0.95.

**Q.** What about the “NES, Inflammatory response gene set” value [3] of the same compound?
**A.** The value was 1.38.

**Q.** What about the “NES, Interferon-α response gene set” value [3] of the same compound?
**A.** Its value is 2.12.

**Q.** What about the “NES, Interferon-γ response gene set” value [3] of the same compound?
**A.** The value was 2.07.

**Q.** And the “NES, Adipogenesis gene set” value [4]?
**A.** The value was 1.60.

**Q.** What about the “NES, Bile acid metabolism gene set” value [4] of the same compound?
**A.** The value was 1.62.

**Q.** What about the “NES, Cholesterol homeostasis gene set” value [4] of the same compound?
**A.** The value was 1.19.

**Q.** And the “NES, Coagulation gene set” value [4]?
**A.** The value was 1.57.

**Q.** What about the “NES, Complement gene set” value [4] of the same compound?
**A.** The value was 2.07.

**Q.** And the “NES, Fatty acid metabolism gene set” value [4]?
**A.** Its value is 2.22.

**Q.** What about the “NES, Glycolysis gene set” value [4] of the same compound?
**A.** Its value is 1.10.

**Q.** What about the “NES, Heme metabolism gene set” value [4] of the same compound?
**A.** The value was −0.98.

**Q.** What about the “NES, Oxidative phosphorylation gene set” value [4] of the same compound?
**A.** Its value is 2.49.

**Q.** What about the “NES, Peroxisome gene set” value [4] of the same compound?
**A.** Its value is 1.49.

**Q.** And the “NES, Protein secretion gene set” value [4]?
**A.** The value was 1.57.

**Q.** And the “NES, Xenobiotic metabolism gene set” value [4]?
**A.** The value was 1.66.

**Q.** What about the “NES, Angiogenesis gene set” value [5] of the same compound?
**A.** The value was 1.47.

**Q.** What about the “NES, Epithelial mesenchymal transition gene set” value [5] of the same compound?
**A.** Its value is 1.41.

**Q.** And the “NES, Androgen response gene set” value [6]?
**A.** Its value is 1.52.

**Q.** What about the “NES, Estrogen response early gene set” value [6] of the same compound?
**A.** The value was −0.79.

**Q.** And the “NES, Estrogen response late gene set” value [6]?
**A.** The value was 1.12.

**Q.** What about the “NES, Hypoxia gene set” value [7] of the same compound?
**A.** The value was 0.97.

**Q.** And the “NES, Myogenesis gene set” value [7]?
**A.** The value was −0.95.

**Q.** What about the “NES, Reactive oxygen species gene set” value [7] of the same compound?
**A.** The value was 1.07.

**Q.** What about the “NES, UV response up gene set” value [7] of the same compound?
**A.** The value was 1.12.

**Q.** And the “NES, Unfolded protein response gene set” value [7]?
**A.** The value was 1.34.

**Q.** What about the “NES, B cell (naïve) gene set” value [8] of the same compound?
**A.** Its value is −0.52.

**Q.** What about the “NES, CD4 T cell (naïve) gene set” value [8] of the same compound?
**A.** The value was −0.57.

**Q.** And the “NES, CD8 T cell gene set” value [8]?
**A.** The value was 1.13.

**Q.** What about the “NES, DC (activate) gene set” value [8] of the same compound?
**A.** Its value is 1.35.

**Q.** What about the “NES, Gamma delta T cell gene set” value [8] of the same compound?
**A.** Its value is 1.09.

**Q.** And the “NES, Macrophage (M1) gene set” value [8]?
**A.** The value was 1.42.

**Q.** What about the “NES, Macrophage (M2) gene set” value [8] of the same compound?
**A.** Its value is 2.66.

**Q.** And the “NES, Mast cell (active) gene set” value [8]?
**A.** Its value is 1.22.

**Q.** And the “NES, Mast cell (rest) gene set” value [8]?
**A.** The value was −1.59.

**Q.** What about the “NES, Memory B cell gene set” value [8] of the same compound?
**A.** Its value is −0.72.

**Q.** What about the “NES, Memory T cell (rest) gene set” value [8] of the same compound?
**A.** Its value is 0.80.

**Q.** What about the “NES, Monocyte gene set” value [8] of the same compound?
**A.** Its value is 2.81.

**Q.** And the “NES, NK cell (rest) gene set” value [8]?
**A.** The value was 1.12.

**Q.** And the “NES, Neutrophil gene set” value [8]?
**A.** The value was 1.87.

**Q.** What about the “NES, Plasma cell gene set” value [8] of the same compound?
**A.** The value was 0.98.

**Q.** What about the “NES, Regulatory T cell gene set” value [8] of the same compound?
**A.** Its value is −0.99.

**Q.** And the “NES, T follicular helper cell gene set” value [8]?
**A.** Its value is 1.22.

**Q.** And the “NES, FXR pathway gene set” value [9]?
**A.** The value was −1.06.

**Q.** What about the “NES, PPAR signaling gene set (first listed)” value [9] of the same compound?
**A.** Its value is 1.81.

**Q.** And the “NES, PPAR signaling gene set (second listed)” value [9]?
**A.** The value was 1.70.

**Q.** What about the “NES, PPARα pathway gene set (first listed)” value [9] of the same compound?
**A.** Its value is 1.55.

**Q.** And the “NES, PPARα pathway gene set (second listed)” value [9]?
**A.** Its value is 0.92.

**Q.** What about the “NES, RAR/RXR pathway gene set” value [9] of the same compound?
**A.** Its value is −1.50.

**Q.** What about the “NES, RXR/VDR pathway gene set” value [9] of the same compound?
**A.** The value was −1.10.

**Q.** And the “NES, GW7647 (PPARa agonist) gene set” value (Fibrosis improved, NASH patients, PPAR agonist on human primary hepatocytes (GSE53399))?
**A.** The value was 1.84.

**Q.** What about the “NES, GW501516 (PPARd agonist) gene set” value [10] of the same compound?
**A.** Its value is 1.16.

**Q.** And the “NES, ROSIGLITAZONE (PPARg agonist) gene set” value [10]?
**A.** The value was 1.36.

**Q.** And the “NES, WY14643 (PPARa agonist) gene set” value [10]?
**A.** The value was 1.56.

**Q.** What about the “NES, PDGFRB target gene signature” value (Fibrosis improved, NASH patients, iLINCS) of the same compound?
**A.** The value was −0.83.

**Q.** What about the “NES, DNA repair gene set” value [11] of the same compound?
**A.** Its value is 0.85.

**Q.** What about the “NES, G2M checkpoint gene set” value [11] of the same compound?
**A.** The value was 2.00.
